Concentration and Activity data for two compounds are collected here from ChEMBL document CHEMBL1133225.

The source made the active and inactive calls. No cut-off for these calls is given here.

In experiment [1] the target is T1, Acetylcholinesterase (Mus musculus) (UniProt P21836).
T1 sequence (whole entry): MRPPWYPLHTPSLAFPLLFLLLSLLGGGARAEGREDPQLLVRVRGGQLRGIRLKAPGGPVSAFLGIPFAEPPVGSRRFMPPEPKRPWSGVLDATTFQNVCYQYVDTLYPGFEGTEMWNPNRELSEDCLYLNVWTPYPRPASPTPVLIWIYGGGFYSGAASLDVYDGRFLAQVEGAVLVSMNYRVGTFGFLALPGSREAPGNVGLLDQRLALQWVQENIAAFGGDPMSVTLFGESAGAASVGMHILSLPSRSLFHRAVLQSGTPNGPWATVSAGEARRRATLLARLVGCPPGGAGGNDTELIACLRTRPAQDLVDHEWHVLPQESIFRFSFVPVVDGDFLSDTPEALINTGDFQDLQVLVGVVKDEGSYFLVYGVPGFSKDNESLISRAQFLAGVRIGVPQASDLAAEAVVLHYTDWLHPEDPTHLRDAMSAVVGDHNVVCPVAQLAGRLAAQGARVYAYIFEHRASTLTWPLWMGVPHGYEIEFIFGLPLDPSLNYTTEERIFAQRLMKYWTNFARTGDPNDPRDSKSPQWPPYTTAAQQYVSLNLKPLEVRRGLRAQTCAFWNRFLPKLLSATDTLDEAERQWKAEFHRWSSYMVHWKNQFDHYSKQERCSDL
As to the kind of experiment: Compound was tested against recombinant mouse Acetylcholinesterase; 5-40 uM, Modest inhibition.

The target in experiment [2] is Acetylcholinesterase (Electrophorus electricus) (UniProt O42275). As to the kind of experiment: Compound was tested against electric eel Acetylcholinesterase; Inactive.
Sequence of Acetylcholinesterase (Electrophorus electricus) (O42275 24-633 limits assumed): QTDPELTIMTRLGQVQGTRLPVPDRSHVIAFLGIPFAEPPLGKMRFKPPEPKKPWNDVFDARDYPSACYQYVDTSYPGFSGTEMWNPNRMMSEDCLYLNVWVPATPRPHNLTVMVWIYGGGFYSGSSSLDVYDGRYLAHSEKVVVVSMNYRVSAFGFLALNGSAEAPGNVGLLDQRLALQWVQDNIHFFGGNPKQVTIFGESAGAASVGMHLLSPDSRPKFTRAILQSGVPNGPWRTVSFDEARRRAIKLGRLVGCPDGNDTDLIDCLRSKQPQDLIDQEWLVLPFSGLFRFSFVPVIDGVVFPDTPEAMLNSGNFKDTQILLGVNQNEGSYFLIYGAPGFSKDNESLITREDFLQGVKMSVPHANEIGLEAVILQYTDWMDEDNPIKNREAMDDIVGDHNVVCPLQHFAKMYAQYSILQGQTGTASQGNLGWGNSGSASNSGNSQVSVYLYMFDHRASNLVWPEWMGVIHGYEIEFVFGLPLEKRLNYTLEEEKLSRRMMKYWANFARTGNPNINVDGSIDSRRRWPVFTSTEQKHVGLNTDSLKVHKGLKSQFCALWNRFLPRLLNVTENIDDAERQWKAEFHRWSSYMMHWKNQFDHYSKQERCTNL

With `COP(=O)(CC(=O)N[C@@H](CCCCNS(=O)(=O)c1ccc2ccc3cccc4ccc1c2c34)C(N)=O)SC` (some centres undefined), the Concentration in experiment [1] was 40 µM. Moreover, the result in experiment [2] was inactive.
On the same counts, the results for `COP(=O)(CC(=O)N[C@@H](CCCCNS(=O)(=O)c1ccc2ccc3cccc4ccc1c2c34)C(N)=O)OC` are 40 µM and “inactive”.
